From ChEMBL document CHEMBL1629577, “Activity of T-705 in a hamster model of yellow fever virus infection in comparison with that of a chemically related compound, T-1106” (Antimicrob Agents Chemother, 2009)
Active and inactive are the calls of the source. No cut-off for these calls is given here.

Columns and labels:
Yellow fever virus [1] = assay: Antiviral activity against 10^2 CCID50 Yellow fever virus Jimenez infected in syrian golden hamster assessed as mean day of death […] at 100 mg/kg/day, po administered twice daily for 8 days started 4 hrs prior to viral infection relative to control; type: functional
Yellow fever virus [2] = assay: Antiviral activity against 10^2 CCID50 Yellow fever virus Jimenez infected in syrian golden hamster assessed as serum AST level in surviving animals at 400 mg/kg/day, po administered 4 days post viral infection; type: functional
Yellow fever virus [3] = assay: Antiviral activity against 10^2 CCID50 Yellow fever virus Jimenez infected in syrian golden hamster assessed as serum AST level at 50 mg/kg/day, po administered twice daily for 8 days started 4 hrs prior to viral infection; type: functional, organism-based
Yellow fever virus [4] = assay: Antiviral activity against 10^2 CCID50 Yellow fever virus Jimenez infected in syrian golden hamster assessed as serum ALT level at 400 mg/kg/day, po administered daily for days started 5 day post viral challenge; type: functional
Yellow fever virus [5] = assay: Antiviral activity against 10^2 CCID50 Yellow fever virus Jimenez infected in syrian golden hamster assessed as serum ALT level in non surviving animals at 400 mg/kg/day, po administered 5 days post viral infection; type: functional
Yellow fever virus [6] = assay: Antiviral activity against 10^2 CCID50 Yellow fever virus Jimenez infected in syrian golden hamster assessed as serum AST level at 10 mg/kg/day, po administered twice daily for 8 days started 4 hrs prior to viral infection; type: functional, organism-based
Yellow fever virus [7] = assay: Antiviral activity against 10^2 CCID50 Yellow fever virus Jimenez infected in syrian golden hamster assessed as mean day of death […] at 400 mg/kg/day, po administered twice daily for 8 days started 3 day post infection; type: functional
Yellow fever virus [8] = assay: Antiviral activity against 10^2 CCID50 Yellow fever virus Jimenez infected in syrian golden hamster assessed as serum ALT level at 400 mg/kg/day, po administered daily for days started 3 day post viral challenge; type: functional
Yellow fever virus [9] = assay: Antiviral activity against 10^2 CCID50 Yellow fever virus Jimenez infected in syrian golden hamster assessed as mean day of death of mice at 400 mg/kg/day, po administered twice daily for 8 days started 4 day post infection; type: functional
Yellow fever virus [10] = assay: Antiviral activity against 10^2 CCID50 Yellow fever virus Jimenez infected in syrian golden hamster assessed as serum AST level in surviving animals at 400 mg/kg/day, po administered 5 days post viral infection; type: functional
Yellow fever virus [11] = assay: Antiviral activity against Yellow fever virus 17D infected in African green monkey Vero cells assessed as inhibition of virus induced cytopathic effect by microscopic analysis; type: functional, cell-based
Yellow fever virus [12] = assay: Antiviral activity against 10^2 CCID50 Yellow fever virus Jimenez infected in syrian golden hamster assessed as serum AST level at 200 mg/kg/day, po administered twice daily for 8 days started 4 hrs prior to viral infection; type: functional, organism-based
Yellow fever virus [13] = assay: Antiviral activity against 10^2 CCID50 Yellow fever virus Jimenez infected in syrian golden hamster assessed as mean day of death […] at 400 mg/kg/day, po administered twice daily for 8 days started 4 hrs prior to viral infection relative to control; type: functional
Yellow fever virus [14] = assay: Antiviral activity against 10^2 CCID50 Yellow fever virus Jimenez infected in syrian golden hamster assessed as serum ALT level at 400 mg/kg/day, po administered daily for days started 4 day post viral challenge; type: functional
Yellow fever virus [15] = assay: Antiviral activity against 10^2 CCID50 Yellow fever virus Jimenez infected in syrian golden hamster assessed as serum ALT level at 400 mg/kg/day, po administered daily for days started 2 day post viral challenge; type: functional
Yellow fever virus [16] = assay: Antiviral activity against 10^2 CCID50 Yellow fever virus Jimenez infected in syrian golden hamster assessed as survival of animal at 400 mg/kg/day, po administered twice daily for 8 days started 2 day post viral infection; type: functional, organism-based
Yellow fever virus [17] = assay: Antiviral activity against Yellow fever virus 17D infected in African green monkey Vero cells assessed as inhibition of virus induced cytopathic effect […] by NR dye uptake assay; type: functional, cell-based
Yellow fever virus [18] = assay: Antiviral activity against 10^2 CCID50 Yellow fever virus Jimenez infected in syrian golden hamster assessed as serum AST level at 32 mg/kg/day, po administered twice daily for 8 days started 4 hrs prior to viral infection; type: functional, organism-based
Yellow fever virus [19] = assay: Antiviral activity against 10^2 CCID50 Yellow fever virus Jimenez infected in syrian golden hamster assessed as serum ALT level at 200 mg/kg/day, po administered twice daily for 8 days started 4 hrs prior to viral infection; type: functional
Yellow fever virus [20] = assay: Antiviral activity against 10^2 CCID50 Yellow fever virus Jimenez infected in syrian golden hamster assessed as serum AST level at 400 mg/kg/day, po administered daily for days started 3 day post viral challenge; type: functional
Yellow fever virus [21] = assay: Antiviral activity against 10^2 CCID50 Yellow fever virus Jimenez infected in syrian golden hamster assessed as mean day of death […] at 400 mg/kg/day, po administered twice daily for 8 days started 1 day post infection; type: functional
Yellow fever virus [22] = assay: Antiviral activity against 10^2 CCID50 Yellow fever virus Jimenez infected in syrian golden hamster assessed as serum AST level at 400 mg/kg/day, po administered daily for days started 5 day post viral challenge; type: functional
Yellow fever virus [23] = assay: Antiviral activity against 10^2 CCID50 Yellow fever virus Jimenez infected in syrian golden hamster assessed as survival of animal at 400 mg/kg/day, po administered twice daily for 8 days started 1 day post viral infection; type: functional, organism-based
Yellow fever virus [24] = assay: Antiviral activity 10^2 CCID50 Yellow fever virus Jimenez infected in syrian golden hamster assessed as serum AST level at 100 mg/kg/day, po administered twice daily for 8 days started 4 hrs prior to viral infection; type: functional, organism-based
Yellow fever virus [25] = assay: Antiviral activity against 10^2 CCID50 Yellow fever virus Jimenez infected in syrian golden hamster assessed as serum ALT level in non surviving animals at 400 mg/kg/day, po administered 4 days post viral infection; type: functional
Yellow fever virus [26] = assay: Antiviral activity against 10^2 CCID50 Yellow fever virus Jimenez infected in syrian golden hamster assessed as serum ALT level at 100 mg/kg/day, po administered twice daily for 8 days started 4 hrs prior to viral infection; type: functional
Yellow fever virus [27] = assay: Antiviral activity against 10^2 CCID50 Yellow fever virus Jimenez infected in syrian golden hamster assessed as mean day of death […] at 400 mg/kg/day, po administered twice daily for 8 days started 5 day post infection; type: functional
Yellow fever virus [28] = assay: Antiviral activity against 10^2 CCID50 Yellow fever virus Jimenez infected in syrian golden hamster assessed as serum AST level in non surviving animals at 400 mg/kg/day, po administered 4 days post viral infection; type: functional
Yellow fever virus [29] = assay: Antiviral activity against 10^2 CCID50 Yellow fever virus Jimenez infected in syrian golden hamster assessed as serum AST level at 400 mg/kg/day, po administered daily for days started 1 day post viral challenge; type: functional
Yellow fever virus [30] = assay: Antiviral activity against 10^2 CCID50 Yellow fever virus Jimenez infected in syrian golden hamster assessed as survival of animal at 400 mg/kg/day, po administered twice daily for 8 days started 4 hrs prior to viral infection; type: functional, organism-based
Yellow fever virus [31] = assay: Antiviral activity against 10^2 CCID50 Yellow fever virus Jimenez infected in syrian golden hamster assessed as serum survival of animal at 100 mg/kg/day, po administered twice daily for 8 days started 4 hrs prior to viral infection; type: functional, organism-based
Yellow fever virus [32] = assay: Antiviral activity against Yellow fever virus 17D infected in African green monkey Vero cells assessed as inhibition of virus induced cytopathic effect by luciferase reporter gene assay; type: functional, cell-based

With `NC(=O)c1nc(F)cnc1O` [FAVIPIRAVIR] as the compound, how does the Time (Yellow fever virus [1]) read?
Its Time is 7.1 days.

What about the Activity (Yellow fever virus [2]) of the same compound?
The Activity was 132 IU/L.

And the Activity (Yellow fever virus [3])?
Its Activity is “inactive”.

And the Activity (Yellow fever virus [4])?
Its Activity is 157 IU/L.

And the Activity (Yellow fever virus [5])?
The Activity was 332 IU/L.

What about the Activity (Yellow fever virus [6]) of the same compound?
Its Activity is “inactive”.

What about the Time (Yellow fever virus [7]) of the same compound?
Its Time is 7 days.

And the Activity (Yellow fever virus [8])?
Its Activity is 139 IU/L.

And the Time (Yellow fever virus [9])?
The Time was 6.5 days.

What about the Activity (Yellow fever virus [10]) of the same compound?
The Activity was 153 IU/L.

And the EC50 (Yellow fever virus [11])?
Its EC50 is 180 µM.

And the Activity (Yellow fever virus [12])?
Its Activity is “inactive”.

What about the Time (Yellow fever virus [13]) of the same compound?
The Time was 6 days.

What about the Activity (Yellow fever virus [14]) of the same compound?
Its Activity is 115 IU/L.

What about the Activity (Yellow fever virus [15]) of the same compound?
The Activity was 84 IU/L.

And the Activity (Yellow fever virus [16])?
The Activity was “Active”.

And the EC50 (Yellow fever virus [17])?
The EC50 was 270 µM.

And the Activity (Yellow fever virus [18])?
Its Activity is “inactive”.

And the Activity (Yellow fever virus [19])?
The Activity was 128 IU/L.

And the Activity (Yellow fever virus [20])?
The Activity was 137 IU/L.

What about the Time (Yellow fever virus [21]) of the same compound?
The Time was over 21 days.

And the Activity (Yellow fever virus [22])?
The Activity was 212 IU/L.

What about the Activity (Yellow fever virus [23]) of the same compound?
Its Activity is “Active”.

What about the Activity (Yellow fever virus [24]) of the same compound?
The Activity was “inactive”.

And the Activity (Yellow fever virus [25])?
Its Activity is 231 IU/L.

And the Activity (Yellow fever virus [26])?
The Activity was 157 IU/L.

And the Time (Yellow fever virus [27])?
Its Time is 6.8 days.

And the Activity (Yellow fever virus [28])?
Its Activity is 189 IU/L.

And the Activity (Yellow fever virus [29])?
The Activity was 52 IU/L.

What about the Activity (Yellow fever virus [30]) of the same compound?
The Activity was “Active”.

And the Activity (Yellow fever virus [31])?
Its Activity is “inactive”.

What about the EC50 (Yellow fever virus [32]) of the same compound?
The EC50 was 270 µM.
